# Reference: patent US20250195463A1, “ORGANOMETALLIC COMPLEX, CONTROLLED-RELEASE MULTI-FUNCTIONAL DRUG, PHARMACEUTICAL COMPOSITION, PROCESSES FOR THE PREPARATION THEREOF AND THEIR USE” (FACULDADE DE CIÊNCIAS DA UNIVERSIDADE DE LISBOA, priority 2022, published 2025)
# Key:
# [1] = Stability in organic medium (dimethyl sulfoxide) by UV-Vis spectroscopy; assay type: physicochemical; conditions: for Relative variation of the maximum absorbance of the charge transfer bands: band 357-425 nm (λmax in column head); for Relative variation of the maximum absorbance of the π→π* transitions: band 289-300 nm (λmax in column head)
# Method: (§1) The stability of the complexes 4-11 in organic and aqueous media was evaluated over 24 h by UV-Vis spectroscopy at room temperature, in dark, on a Jasco V-660 spectrometer using quartz cuvettes (1 cm optical path length). The electronic spectra (270-900 nm) were acquired at regular periods of time (0 h, 0.25 h, 0.5 h, 0.75 h, 1 h, 2 h, 3 h, 4 h, 5 h, 6 h, 24 h) for solutions of 100% dimethyl sulfoxide (complexes 4-11) and 5% dimethyl sulfoxide/95% Dulbecco's Modified Eagle Medium (complexes 4, 5 and 8-11) or 10% dimethyl sulfoxide/90% Dulbecco's Modified Eagle Medium (complexes 6 and 7) at concentrations ranging from 7.0×10^-5 M to 3.0×10^-4 M.
# [2] = Stability in aqueous medium (dimethyl sulfoxide/Dulbecco's Modified Eagle Medium) by UV-Vis spectroscopy; assay type: physicochemical; conditions: for Relative variation of the maximum absorbance of the π→π* transitions: band 292-296 nm (λmax in column head); for Relative variation of the maximum absorbance of the charge transfer bands: band 358-400 nm (λmax in column head)
# Method: as §1
# [3] = 10% dimethyl sulfoxide/90% Dulbecco's Modified Eagle Medium, time 0 h
# [4] = 10% dimethyl sulfoxide/90% Dulbecco's Modified Eagle Medium, time 0.25 h
# [5] = 10% dimethyl sulfoxide/90% Dulbecco's Modified Eagle Medium, time 0.5 h
# [6] = 10% dimethyl sulfoxide/90% Dulbecco's Modified Eagle Medium, time 0.75 h
# [7] = 10% dimethyl sulfoxide/90% Dulbecco's Modified Eagle Medium, time 1 h
# [8] = 10% dimethyl sulfoxide/90% Dulbecco's Modified Eagle Medium, time 2 h
# [9] = 10% dimethyl sulfoxide/90% Dulbecco's Modified Eagle Medium, time 3 h
# [10] = 10% dimethyl sulfoxide/90% Dulbecco's Modified Eagle Medium, time 4 h
# [11] = 10% dimethyl sulfoxide/90% Dulbecco's Modified Eagle Medium, time 5 h
# [12] = 10% dimethyl sulfoxide/90% Dulbecco's Modified Eagle Medium, time 6 h
# [13] = 10% dimethyl sulfoxide/90% Dulbecco's Modified Eagle Medium, time 24 h
# [14] = 5% dimethyl sulfoxide/95% Dulbecco's Modified Eagle Medium, time 0 h
# [15] = 5% dimethyl sulfoxide/95% Dulbecco's Modified Eagle Medium, time 0.25 h
# [16] = 5% dimethyl sulfoxide/95% Dulbecco's Modified Eagle Medium, time 0.5 h
# [17] = 5% dimethyl sulfoxide/95% Dulbecco's Modified Eagle Medium, time 0.75 h
# [18] = 5% dimethyl sulfoxide/95% Dulbecco's Modified Eagle Medium, time 1 h
# [19] = 5% dimethyl sulfoxide/95% Dulbecco's Modified Eagle Medium, time 2 h
# [20] = 5% dimethyl sulfoxide/95% Dulbecco's Modified Eagle Medium, time 3 h
# [21] = 5% dimethyl sulfoxide/95% Dulbecco's Modified Eagle Medium, time 4 h
# [22] = 5% dimethyl sulfoxide/95% Dulbecco's Modified Eagle Medium, time 5 h
# [23] = 5% dimethyl sulfoxide/95% Dulbecco's Modified Eagle Medium, time 6 h
# [24] = 5% dimethyl sulfoxide/95% Dulbecco's Modified Eagle Medium, time 24 h
smiles,measurement,setting,value
CC(=O)C1=C[CH]([Ru-]2([PH](c3ccccc3)(c3ccccc3)c3ccccc3)[n+]3cccc4c5nccnc5c5ccc[n+]2c5c43)C=C1.O=S(=O)([O-])C(F)(F)F (centres unmarked) [compound 7],Relative variation of the maximum absorbance of the charge transfer bands,[1]; time 0 h,0.0%
same,Relative variation of the maximum absorbance of the charge transfer bands,[1]; time 0.25 h,0.0%
same,Relative variation of the maximum absorbance of the charge transfer bands,[1]; time 0.5 h,−0.1%
same,Relative variation of the maximum absorbance of the charge transfer bands,[1]; time 0.75 h,−0.1%
same,Relative variation of the maximum absorbance of the charge transfer bands,[1]; time 1 h,−0.1%
same,Relative variation of the maximum absorbance of the charge transfer bands,[1]; time 2 h,−0.3%
same,Relative variation of the maximum absorbance of the charge transfer bands,[1]; time 3 h,−0.2%
same,Relative variation of the maximum absorbance of the charge transfer bands,[1]; time 4 h,−0.5%
same,Relative variation of the maximum absorbance of the charge transfer bands,[1]; time 5 h,−0.3%
same,Relative variation of the maximum absorbance of the charge transfer bands,[1]; time 6 h,−0.4%
same,Relative variation of the maximum absorbance of the charge transfer bands,[1]; time 24 h,−0.3%
same,Relative variation of the maximum absorbance of the π→π* transitions,[2]; [3],0.0%
same,Relative variation of the maximum absorbance of the charge transfer bands,[2]; [3],0.0%
same,Relative variation of the maximum absorbance of the π→π* transitions,[2]; [4],0.0%
same,Relative variation of the maximum absorbance of the charge transfer bands,[2]; [4],0.3%
same,Relative variation of the maximum absorbance of the π→π* transitions,[2]; [5],0.1%
same,Relative variation of the maximum absorbance of the charge transfer bands,[2]; [5],0.4%
same,Relative variation of the maximum absorbance of the π→π* transitions,[2]; [6],0.3%
same,Relative variation of the maximum absorbance of the charge transfer bands,[2]; [6],0.6%
same,Relative variation of the maximum absorbance of the π→π* transitions,[2]; [7],0.1%
same,Relative variation of the maximum absorbance of the charge transfer bands,[2]; [7],0.5%
same,Relative variation of the maximum absorbance of the π→π* transitions,[2]; [8],0.1%
same,Relative variation of the maximum absorbance of the charge transfer bands,[2]; [8],0.5%
same,Relative variation of the maximum absorbance of the π→π* transitions,[2]; [9],0.0%
same,Relative variation of the maximum absorbance of the charge transfer bands,[2]; [9],0.4%
same,Relative variation of the maximum absorbance of the π→π* transitions,[2]; [10],−0.3%
same,Relative variation of the maximum absorbance of the charge transfer bands,[2]; [10],0.5%
same,Relative variation of the maximum absorbance of the π→π* transitions,[2]; [11],−0.2%
same,Relative variation of the maximum absorbance of the charge transfer bands,[2]; [11],0.5%
same,Relative variation of the maximum absorbance of the π→π* transitions,[2]; [12],0.0%
same,Relative variation of the maximum absorbance of the charge transfer bands,[2]; [12],0.4%
same,Relative variation of the maximum absorbance of the π→π* transitions,[2]; [13],0.3%
same,Relative variation of the maximum absorbance of the charge transfer bands,[2]; [13],1.3%
COc1cc[n+]2c(c1)-c1cc(O)cc[n+]1[Ru-]2([CH]1C=CC=C1)[PH](c1ccccc1)(c1ccccc1)c1ccccc1.O=S(=O)([O-])C(F)(F)F (centres unmarked) [compound 10],Relative variation of the maximum absorbance of the π→π* transitions,[1]; time 0 h,0.0%
same,Relative variation of the maximum absorbance of the charge transfer bands,[1]; time 0 h,0.0%
same,Relative variation of the maximum absorbance of the π→π* transitions,[1]; time 0.25 h,0.0%
same,Relative variation of the maximum absorbance of the charge transfer bands,[1]; time 0.25 h,0.0%
same,Relative variation of the maximum absorbance of the π→π* transitions,[1]; time 0.5 h,0.0%
same,Relative variation of the maximum absorbance of the charge transfer bands,[1]; time 0.5 h,−0.2%
same,Relative variation of the maximum absorbance of the π→π* transitions,[1]; time 0.75 h,−0.1%
same,Relative variation of the maximum absorbance of the charge transfer bands,[1]; time 0.75 h,−0.3%
same,Relative variation of the maximum absorbance of the π→π* transitions,[1]; time 1 h,0.9%
same,Relative variation of the maximum absorbance of the charge transfer bands,[1]; time 1 h,0.7%
same,Relative variation of the maximum absorbance of the π→π* transitions,[1]; time 2 h,1.5%
same,Relative variation of the maximum absorbance of the charge transfer bands,[1]; time 2 h,1.5%
same,Relative variation of the maximum absorbance of the π→π* transitions,[1]; time 3 h,2.5%
same,Relative variation of the maximum absorbance of the charge transfer bands,[1]; time 3 h,2.5%
same,Relative variation of the maximum absorbance of the π→π* transitions,[1]; time 4 h,3.0%
same,Relative variation of the maximum absorbance of the charge transfer bands,[1]; time 4 h,3.1%
same,Relative variation of the maximum absorbance of the π→π* transitions,[1]; time 5 h,3.0%
same,Relative variation of the maximum absorbance of the charge transfer bands,[1]; time 5 h,3.2%
same,Relative variation of the maximum absorbance of the π→π* transitions,[1]; time 6 h,2.8%
same,Relative variation of the maximum absorbance of the charge transfer bands,[1]; time 6 h,3.1%
same,Relative variation of the maximum absorbance of the π→π* transitions,[1]; time 24 h,3.3%
same,Relative variation of the maximum absorbance of the charge transfer bands,[1]; time 24 h,4.2%
same,Relative variation of the maximum absorbance of the π→π* transitions,[2]; [14],0.0%
same,Relative variation of the maximum absorbance of the charge transfer bands,[2]; [14],0.0%
same,Relative variation of the maximum absorbance of the π→π* transitions,[2]; [15],0.0%
same,Relative variation of the maximum absorbance of the charge transfer bands,[2]; [15],−0.8%
same,Relative variation of the maximum absorbance of the π→π* transitions,[2]; [16],−1.7%
same,Relative variation of the maximum absorbance of the charge transfer bands,[2]; [16],−0.7%
same,Relative variation of the maximum absorbance of the π→π* transitions,[2]; [17],−1.9%
same,Relative variation of the maximum absorbance of the charge transfer bands,[2]; [17],−1.0%
same,Relative variation of the maximum absorbance of the π→π* transitions,[2]; [18],−2.2%
same,Relative variation of the maximum absorbance of the charge transfer bands,[2]; [18],−1.3%
same,Relative variation of the maximum absorbance of the π→π* transitions,[2]; [19],−3.1%
same,Relative variation of the maximum absorbance of the charge transfer bands,[2]; [19],−2.3%
same,Relative variation of the maximum absorbance of the π→π* transitions,[2]; [20],−4.1%
same,Relative variation of the maximum absorbance of the charge transfer bands,[2]; [20],−3.1%
same,Relative variation of the maximum absorbance of the π→π* transitions,[2]; [21],−5.1%
same,Relative variation of the maximum absorbance of the charge transfer bands,[2]; [21],−3.6%
same,Relative variation of the maximum absorbance of the π→π* transitions,[2]; [22],−5.6%
same,Relative variation of the maximum absorbance of the charge transfer bands,[2]; [22],−4.3%
same,Relative variation of the maximum absorbance of the π→π* transitions,[2]; [23],−6.0%
same,Relative variation of the maximum absorbance of the charge transfer bands,[2]; [23],−4.8%
same,Relative variation of the maximum absorbance of the π→π* transitions,[2]; [24],−7.0%
same,Relative variation of the maximum absorbance of the charge transfer bands,[2]; [24],−5.0%
